# According to PubChem BioAssay AID1259411 (Chemical Carcinogenesis Research Information System (CCRIS), 2018):
# Activity calls are given as the source filed them. The rule behind the calls is not given here.
# System: rodent carcinogenicity bioassays, tumor incidence
# Experiment: CCRIS carcinogenicity studies
# In short: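 Archive of carcinogenicity, mutagenicity, tumor promotion and tumor inhibition results drawn from journals, NCI reports and other sources, expert-reviewed; covers 1985-2011 and is no longer updated.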
smiles,measurement,setting,value
CC(=O)C(N=Nc1ccc(-c2ccc(N=NC(C(C)=O)C(=O)Nc3ccccc3)c(Cl)c2)cc1Cl)C(=O)Nc1ccccc1 (centres undefined),carcinogen call,"Species: MOUSE, Strain/Sex: B6C3F1/FEMALE, Route: ORAL, Dose: 0, 2.5, 5% OF DIET, Dose: 0, 2.5, 5% OF DIET",inactive; negative
same,carcinogen call,"Species: MOUSE, Strain/Sex: B6C3F1/MALE, Route: ORAL, Dose: 0, 2.5, 5% OF DIET, Dose: 0, 2.5, 5% OF DIET",inactive; negative
same,carcinogen call,"Species: RAT, Strain/Sex: F344/FEMALE, Route: ORAL, Dose: 0, 2.5, 5% OF DIET, Dose: 0, 2.5, 5% OF DIET",inactive; negative
same,carcinogen call,"Species: RAT, Strain/Sex: F344/MALE, Route: ORAL, Dose: 0, 2.5, 5% OF DIET, Dose: 0, 2.5, 5% OF DIET",inactive; negative
OCc1ccco1,carcinogen call,"Species: MOUSE, Strain/Sex: B6C3F1/FEMALE, Route: INHALATION, Dose: 0, 2, 8, 32 PPM 6 HR/D 5 D/WK FOR 105 WK (STUDY DURATION: 105 WK), Dose: 0, 2, 8, 32 PPM 6 HR/D 5 D/WK FOR 105 WK (STUDY DURATION: 105 WK)",inactive; negative
same,carcinogen call,"Species: MOUSE, Strain/Sex: B6C3F1/MALE, Route: INHALATION, Dose: 0, 2, 8, 32 PPM 6 HR/D 5 D/WK FOR 105 WK (STUDY DURATION: 105 WK), Dose: 0, 2, 8, 32 PPM 6 HR/D 5 D/WK FOR 105 WK (STUDY DURATION: 105 WK), Tumor Site: Type of Lesion: KIDNEY: RENAL TUBULE ADENOMA, CARCINOMA",active; positive
same,carcinogen call,"Species: RAT, Strain/Sex: F344/FEMALE, Route: INHALATION, Dose: 0, 2, 8, 32 PPM 6 HR/D 5 D/WK FOR 105 WK (STUDY DURATION: 105 WK), Dose: 0, 2, 8, 32 PPM 6 HR/D 5 D/WK FOR 105 WK (STUDY DURATION: 105 WK), Tumor Site: Type of Lesion: NOSE: LATERAL WALL, ADENOMA, RESPIRATORY EPITHELIUM ADENOMA, KIDNEY (RENAL TUBULE): ADENOMA, CARCINOMA, ADENOMA OR CARCI",equivocal
same,carcinogen call,"Species: RAT, Strain/Sex: F344/MALE, Route: INHALATION, Dose: 0, 2, 8, 32 PPM 6 HR/D 5 D/WK FOR 105 WK (STUDY DURATION: 105 WK), Dose: 0, 2, 8, 32 PPM 6 HR/D 5 D/WK FOR 105 WK (STUDY DURATION: 105 WK), Tumor Site: Type of Lesion: NOSE: ADENOMA, CARCINOMA, OR SQUAMOUS CELL CARCINOMA",active; positive
Oc1ccc2ccccc2c1N=Nc1ccccc1,carcinogen call,"Species: MOUSE, Route: SUBCUTANEOUS, Tumor Site: Type of Lesion: LIVER",active; positive
same,carcinogen call,"Species: MOUSE, Strain/Sex: B6C3F1/MALE, Route: ORAL, Dose: 0, 500, 1000 PPM IN DIET, Dose: 0, 500, 1000 PPM IN DIET",inactive; negative
same,carcinogen call,"Species: RAT, Strain/Sex: F344/FEMALE, Route: ORAL, Dose: 0, 250, 500 PPM IN DIET, Dose: 0, 250, 500 PPM IN DIET, Tumor Site: Type of Lesion: LIVER: NEOPLASTIC NODULE",active; positive
same,carcinogen call,"Species: RAT, Strain/Sex: F344/MALE, Route: ORAL, Dose: O, 250, 500 PPM IN DIET, Dose: O, 250, 500 PPM IN DIET, Tumor Site: Type of Lesion: LIVER: NEOPLASTIC NODULE",active; positive
N#CCNC(=O)c1cnccc1C(F)(F)F,carcinogen call,"Species: Mouse, Strain/Sex: Crl:CD-1(ICR)BR VAF/Plus / Female (60/Group), Route: Oral, Dose: 0, 250, 750, 2250 ppm (0; 38; 112; 334 mg/kg/day) in diet for 18 mo, study duration 18 mo, Dose: 0, 250, 750, 2250 ppm (0; 38; 112; 334 mg/kg/day) in diet for 18 mo, study duration 18 mo, Tumor Site: Type of Lesion: Lung: alveolar/bronchiolar adenomas and carcinomas",active; positive
same,carcinogen call,"Species: Mouse, Strain/Sex: Crl:CD-1(ICR)BR VAF/Plus / Male (60/Group), Route: Oral, Dose: 0, 250, 750, 2250 ppm (0; 29; 88; 261 mg/kg/day) in diet for 18 mo, study duration 18 mo, Dose: 0, 250, 750, 2250 ppm (0; 29; 88; 261 mg/kg/day) in diet for 18 mo, study duration 18 mo, Tumor Site: Type of Lesion: Lung: alveolar/bronchiolar adenomas and carcinomas",active; positive
same,carcinogen call,"Species: Rat, Strain/Sex: Wistar (Jcl:Wistar)/Female (52/Group), Route: Oral, Dose: 0, 200, 1000, 5000 ppm (0; 8.92; 44.1; 219 mg/kg/day) in diet for 2 yr, study duration 2 yr, Dose: 0, 200, 1000, 5000 ppm (0; 8.92; 44.1; 219 mg/kg/day) in diet for 2 yr, study duration 2 yr",inactive; negative
same,carcinogen call,"Species: Rat, Strain/Sex: Wistar (Jcl:Wistar)/Male (52/Group), Route: Oral, Dose: 0, 50, 100, 200, 1000 ppm (0; 1.84; 3.68; 7.32; 36.5 mg/kg/day) in diet for 2 yr, study duration 2 yr, Dose: 0, 50, 100, 200, 1000 ppm (0; 1.84; 3.68; 7.32; 36.5 mg/kg/day) in diet for 2 yr, study duration 2 yr",inactive; negative
c1ccc2c(c1)ccc1cccnc12,carcinogen call,"Species: RAT, Strain/Sex: SPRAGUE-DAWLEY/FEMALE, Route: SUBCUTANEOUS, Dose: 0, 200 UMOL/KG IN DMSO INTO SUPRASCAPULAR AREA ON DAY 1 OF LIFE FOLLOWED BY 0, 100 UMOL 1/WK AT WK 2-7 THEN O, 200 UMOL/, Dose: 0, 200 UMOL/KG IN DMSO INTO SUPRASCAPULAR AREA ON DAY 1 OF LIFE FOLLOWED BY 0, 100 UMOL 1/WK AT WK 2-7 THEN O, 200 UMOL/",inactive; negative
same,carcinogen call,"Species: RAT, Strain/Sex: SPRAGUE-DAWLEY/MALE, Route: SUBCUTANEOUS, Dose: 0, 200 UMOL/KG IN DMSO INTO SUPRASCAPULAR AREA ON DAY 1 OF LIFE FOLLOWED BY 0, 100 UMOL 1/WK AT WK 2-7 THEN O, 200 UMOL/, Dose: 0, 200 UMOL/KG IN DMSO INTO SUPRASCAPULAR AREA ON DAY 1 OF LIFE FOLLOWED BY 0, 100 UMOL 1/WK AT WK 2-7 THEN O, 200 UMOL/",inactive; negative
COc1cc2c(c3ccc4ccccc4c13)CCC2,carcinogen call,"Species: MOUSE, Strain/Sex: TO/MALE, FEMALE, Route: DERMAL, Dose: 0, 50 UG (10 µL OF A 0.5% W/V TOLUENE SOLUTION) 2/WK FOR 70 WK (STUDY DURATION: 70 WK), Tumor Site: Type of Lesion: SKIN: PAPILLOMA OR CARCINOMA",active; positive
CC(N)=O,carcinogen call,"Species: RAT, Strain/Sex: WISTAR/MALE, Route: ORAL, Dose: 1.25, 2.5, 5% IN DIET FOR ONE YR, Dose: 1.25, 2.5, 5% IN DIET FOR ONE YR, Tumor Site: Type of Lesion: LIVER: TRABECULAR CARCINOMA, ADENOCARCINOMA, HEPATOMA",active; positive
CSC1=N[C@@](C)(c2ccccc2)C(=O)N1Nc1ccccc1,carcinogen call,"Species: Mouse, Strain/Sex: C57BL/10JfCD-1 Alpk/Female (55/Group), Route: Oral, Dose: 0, 70, 350, 3500, 7000 ppm (0; 12.6; 63.8; 690.5; 1393.2 mg/kg/d) for 80 wks, study duration 80 wks, Dose: 0, 70, 350, 3500, 7000 ppm (0; 12.6; 63.8; 690.5; 1393.2 mg/kg/d) for 80 wks, study duration 80 wks",inactive; negative
same,carcinogen call,"Species: Mouse, Strain/Sex: C57BL/10JfCD-1 Alpk/Male (55/Group), Route: Oral, Dose: 0, 70, 350, 3500, 7000 ppm (0; 9.5; 47.5; 525.5; 1100.2 mg/kg/d) for 80 wks, study duration 80 wks, Dose: 0, 70, 350, 3500, 7000 ppm (0; 9.5; 47.5; 525.5; 1100.2 mg/kg/d) for 80 wks, study duration 80 wks",inactive; negative
same,carcinogen call,"Species: Rat, Strain/Sex: Sprague-Dawley/Female (70/Group), Route: Oral, Dose: 0, 60, 150, 1000 ppm (0; 3.63; 9.24; 60.93 mg/kg/day) in diet for 104 wks, study duration 104 wks, Dose: 0, 60, 150, 1000 ppm (0; 3.63; 9.24; 60.93 mg/kg/day) in diet for 104 wks, study duration 104 wks",inactive; negative
same,carcinogen call,"Species: Rat, Strain/Sex: Sprague-Dawley/Female (70/Group), Route: Oral, Dose: 0, 5000 ppm in diet for 104 wks, study duration 104 wks, Dose: 0, 5000 ppm in diet for 104 wks, study duration 104 wks",inactive; negative
same,carcinogen call,"Species: Rat, Strain/Sex: Sprague-Dawley/Male (70/Group), Route: Oral, Dose: 0, 60, 150, 1000 ppm (0; 2.83; 7.07; 47.68 mg/kg/day) in diet for 104 wks, study duration 104 wks, Dose: 0, 60, 150, 1000 ppm (0; 2.83; 7.07; 47.68 mg/kg/day) in diet for 104 wks, study duration 104 wks",inactive; negative
same,carcinogen call,"Species: Rat, Strain/Sex: Sprague-Dawley/Male (70/Group), Route: Oral, Dose: 0, 5000 ppm in diet for 104 wks, study duration 104 wks, Dose: 0, 5000 ppm in diet for 104 wks, study duration 104 wks",inactive; negative
O=C1OC2(c3ccccc31)c1cc(Br)c(O)c(Br)c1Oc1c2cc(Br)c(O)c1Br,carcinogen call,"Species: MOUSE, Strain/Sex: ICR/FEMALE, Route: DERMAL, Dose: 0, 1 MG IN 0.1 ML DISTILLED WATER 2/WK FOR A MEAN TOTAL DOSE OF 140.1 MG (STUDY DURATION: 18 MO)",inactive; negative
same,carcinogen call,"Species: MOUSE, Strain/Sex: ICR/MALE, Route: DERMAL, Dose: 0, 1 MG IN 0.1 ML DISTILLED WATER 2/WK FOR A MEAN TOTAL DOSE OF 140.1 MG (STUDY DURATION: 18 MO)",inactive; negative
CC(=O)N1C(C)CN(N=O)CC1C (centres undefined),carcinogen call,"Species: RAT, Strain/Sex: F344/FEMALE, Route: ORAL, Dose: 0, 130 MG/L IN DRINKING WATER 5 D/WK FOR 30 WK, STUDY DURATION: 30-40 WK, Dose: 0, 130 MG/L IN DRINKING WATER 5 D/WK FOR 30 WK, STUDY DURATION: 30-40 WK, Tumor Site: Type of Lesion: ESOPHAGUS: CARCINOMA, TONGUE: PAPILLOMA OR CARCINOMA",active; positive
